Activity calls are given as the source filed them. No cut-off for these calls is given here.
Legend:
Assay type in all cases: functional
[1] = test system: BT-549; experiment: Growth inhibition of human BT549 cells assessed as growth inhibition at 10 uM by sulforhodamine B assay; settings: read-out: GI
[2] = test system: MDA-MB-231; experiment: Growth inhibition of human MDA-MB-231 cells assessed as growth inhibition at 10 uM by sulforhodamine B assay; settings: read-out: GI
[3] = test system: MCF7; experiment: Growth inhibition of human MCF7 cells assessed as growth inhibition at 10 uM by sulforhodamine B assay; settings: read-out: GI
[4] = test system: DU-145; experiment: Growth inhibition of human DU145 cells assessed as growth inhibition at 10 uM by sulforhodamine B assay; settings: read-out: GI
[5] = test system: UO-31; experiment: Growth inhibition of human UO31 cells assessed as growth inhibition at 10 uM by sulforhodamine B assay; settings: read-out: GI
[6] = test system: SN12C; experiment: Growth inhibition of human SN12C cells assessed as growth inhibition at 10 uM by sulforhodamine B assay; settings: read-out: GI
[7] = test system: ACHN; experiment: Growth inhibition of human ACHN cells assessed as growth inhibition at 10 uM by sulforhodamine B assay; settings: read-out: GI
[8] = test system: 786-0; experiment: Growth inhibition of human 786-0 cells assessed as growth inhibition at 10 uM by sulforhodamine B assay; settings: read-out: GI
[9] = Growth inhibition of human NCI-ADR-RES cells assessed as growth inhibition at 10 uM by sulforhodamine B assay; settings: read-out: GI
[10] = test system: CCRF-CEM; experiment: Growth inhibition of human CCRF-CEM cells assessed as cell growth at 10 uM by sulforhodamine B assay; settings: read-out: Activity
[11] = test system: OVCAR-5; experiment: Growth inhibition of human OVCAR5 cells assessed as growth inhibition at 10 uM by sulforhodamine B assay; settings: read-out: GI
[12] = test system: OVCAR-3; experiment: Growth inhibition of human OVCAR3 cells assessed as growth inhibition at 10 uM by sulforhodamine B assay; settings: read-out: GI
[13] = test system: IGROV-1; experiment: Growth inhibition of human IGROV1 cells assessed as growth inhibition at 10 uM by sulforhodamine B assay; settings: read-out: GI
[14] = test system: UACC-62; experiment: Growth inhibition of human UACC62 cells assessed as growth inhibition at 10 uM by sulforhodamine B assay; settings: read-out: GI
[15] = test system: SK-MEL-5; experiment: Growth inhibition of human SK-MEL-5 cells assessed as growth inhibition at 10 uM by sulforhodamine B assay; settings: read-out: GI
[16] = test system: SK-MEL-2; experiment: Growth inhibition of human SK-MEL-2 cells assessed as growth inhibition at 10 uM by sulforhodamine B assay; settings: read-out: GI
[17] = test system: SF-539; experiment: Growth inhibition of human SF539 cells assessed as growth inhibition at 10 uM by sulforhodamine B assay; settings: read-out: GI
[18] = test system: SW-620; experiment: Growth inhibition of human SW620 cells assessed as growth inhibition at 10 uM by sulforhodamine B assay; settings: read-out: GI
[19] = test system: KM12; experiment: Growth inhibition of human KM12 cells assessed as growth inhibition at 10 uM by sulforhodamine B assay; settings: read-out: GI
[20] = test system: HCT-116; experiment: Growth inhibition of human HCT116 cells assessed as growth inhibition at 10 uM by sulforhodamine B assay; settings: read-out: GI
[21] = test system: COLO 205; experiment: Growth inhibition of human COLO205 cells assessed as growth inhibition at 10 uM by sulforhodamine B assay; settings: read-out: GI
[22] = test system: NCI-H460; experiment: Growth inhibition of human NCI-H460 cells assessed as growth inhibition at 10 uM by sulforhodamine B assay; settings: read-out: GI
[23] = Growth inhibition of human EKVX cells assessed as growth inhibition at 10 uM by sulforhodamine B assay; settings: read-out: GI
[24] = test system: HL-60(TB); experiment: Growth inhibition of human HL-60(TB) cells assessed as growth inhibition at 10 uM by sulforhodamine B assay
[25] = test system: MDA-MB-468; experiment: Growth inhibition of human MDA-MB-468 cells assessed as cell growth at 10 uM by sulforhodamine B assay; settings: read-out: Activity
[26] = test system: T47D; experiment: Growth inhibition of human T47D cells assessed as cell growth at 10 uM by sulforhodamine B assay; settings: read-out: Activity
[27] = test system: BT-549; experiment: Growth inhibition of human BT549 cells assessed as cell growth at 10 uM by sulforhodamine B assay; settings: read-out: Activity
[28] = test system: MDA-MB-231; experiment: Growth inhibition of human MDA-MB-231 cells assessed as cell growth at 10 uM by sulforhodamine B assay; settings: read-out: Activity
[29] = test system: UO-31; experiment: Growth inhibition of human UO31 cells assessed as cell growth at 10 uM by sulforhodamine B assay; settings: read-out: Activity
[30] = test system: RXF 393; experiment: Growth inhibition of human RXF393 cells assessed as cell growth at 10 uM by sulforhodamine B assay; settings: read-out: Activity
[31] = test system: ACHN; experiment: Growth inhibition of human ACHN cells assessed as cell growth at 10 uM by sulforhodamine B assay; settings: read-out: Activity
[32] = test system: 786-0; experiment: Growth inhibition of human 786-0 cells assessed as cell growth at 10 uM by sulforhodamine B assay; settings: read-out: Activity
[33] = test system: OVCAR-3; experiment: Growth inhibition of human OVCAR3 cells assessed as cell growth at 10 uM by sulforhodamine B assay; settings: read-out: Activity
[34] = test system: IGROV-1; experiment: Growth inhibition of human IGROV1 cells assessed as cell growth at 10 uM by sulforhodamine B assay; settings: read-out: Activity
[35] = test system: SK-MEL-5; experiment: Growth inhibition of human SK-MEL-5 cells assessed as cell growth at 10 uM by sulforhodamine B assay; settings: read-out: Activity
[36] = test system: MDA-MB-435; experiment: Growth inhibition of human MDA-MB-435 cells assessed as cell growth at 10 uM by sulforhodamine B assay; settings: read-out: Activity
[37] = test system: LOX IMVI; experiment: Growth inhibition of human LOXIMVI cells assessed as cell growth at 10 uM by sulforhodamine B assay; settings: read-out: Activity
[38] = test system: SNB-19; experiment: Growth inhibition of human SNB19 cells assessed as cell growth at 10 uM by sulforhodamine B assay; settings: read-out: Activity
[39] = test system: SF-539; experiment: Growth inhibition of human SF539 cells assessed as cell growth at 10 uM by sulforhodamine B assay; settings: read-out: Activity
[40] = test system: SF-295; experiment: Growth inhibition of human SF295 cells assessed as cell growth at 10 uM by sulforhodamine B assay; settings: read-out: Activity
[41] = test system: SF-268; experiment: Growth inhibition of human SF268 cells assessed as cell growth at 10 uM by sulforhodamine B assay; settings: read-out: Activity
[42] = test system: KM12; experiment: Growth inhibition of human KM12 cells assessed as cell growth at 10 uM by sulforhodamine B assay; settings: read-out: Activity
[43] = test system: HT-29; experiment: Growth inhibition of human HT-29 cells assessed as cell growth at 10 uM by sulforhodamine B assay; settings: read-out: Activity
[44] = Growth inhibition of human HCC2998 cells assessed as cell growth at 10 uM by sulforhodamine B assay; settings: HCC 2998, read-out: Activity
[45] = test system: COLO 205; experiment: Growth inhibition of human COLO205 cells assessed as cell growth at 10 uM by sulforhodamine B assay; settings: read-out: Activity
[46] = test system: NCI-H460; experiment: Growth inhibition of human NCI-H460 cells assessed as cell growth at 10 uM by sulforhodamine B assay; settings: read-out: Activity
[47] = test system: NCI-H23; experiment: Growth inhibition of human NCI-H23 cells assessed as cell growth at 10 uM by sulforhodamine B assay; settings: read-out: Activity
[48] = Growth inhibition of human EKVX cells assessed as cell growth at 10 uM by sulforhodamine B assay; settings: read-out: Activity
[49] = test system: SR; experiment: Growth inhibition of human SR cells assessed as cell growth at 10 uM by sulforhodamine B assay; settings: read-out: Activity

## C/C=C(/C)C(=O)O[C@@H]1CC(C)(C)C[C@H]2C3=CC[C@@H]4[C@@]5(C)CCC(=O)C(C)(C)[C@@H]5CC[C@@]4(C)[C@]3(C)CC[C@@]12C(=O)O [LANTADENE A]
[1]
  inhibition of growth at 10 µM: 56%
[2]
  inhibition of growth at 10 µM: 24.3%
[3]
  inhibition of growth at 10 µM: 45.3%
[4]
  inhibition of growth at 10 µM: 17.4%
[5]
  inhibition of growth at 10 µM: 57.4%
[6]
  inhibition of growth at 10 µM: 47.6%
[7]
  inhibition of growth at 10 µM: 46.1%
[8]
  inhibition of growth at 10 µM: 55.5%
[9]
  inhibition of growth at 10 µM: 26.9%
[10]
  growth at 10 µM: 43.6%
[11]
  inhibition of growth at 10 µM: < 10%
[12]
  inhibition of growth at 10 µM: 37.4%
[13]
  inhibition of growth at 10 µM: 28.4%
[14]
  inhibition of growth at 10 µM: 50.1%
[15]
  inhibition of growth at 10 µM: 61.3%
[16]
  inhibition of growth at 10 µM: 22.9%
[17]
  inhibition of growth at 10 µM: 21.8%
[18]
  inhibition of growth at 10 µM: 31.3%
[19]
  inhibition of growth at 10 µM: 60%
[20]
  inhibition of growth at 10 µM: 66%
[21]
  inhibition of growth at 10 µM: 22%
[22]
  inhibition of growth at 10 µM: 48.5%
[23]
  inhibition of growth at 10 µM: 50.7%
[24]
  growth inhibition (GI): Active
[25]
  growth at 10 µM: 50.8%
[26]
  growth at 10 µM: 63.9%
[27]
  growth at 10 µM: 44%
[28]
  growth at 10 µM: 75.7%
[29]
  growth at 10 µM: 42.6%
[30]
  growth at 10 µM: 88.5%
[31]
  growth at 10 µM: 53.9%
[32]
  growth at 10 µM: 44.5%
[33]
  growth at 10 µM: 62.6%
[34]
  growth at 10 µM: 71.6%
[35]
  growth at 10 µM: 38.7%
[36]
  growth at 10 µM: 87.8%
[37]
  growth at 10 µM: 61.8%
[38]
  growth at 10 µM: 59.4%
[39]
  growth at 10 µM: 78.2%
[40]
  growth at 10 µM: 27.6%
[41]
  growth at 10 µM: 74.1%
[42]
  growth at 10 µM: 40%
[43]
  growth at 10 µM: 67.9%
[44]
  growth at 10 µM: 61.4%
[45]
  growth at 10 µM: 78%
[46]
  growth at 10 µM: 51.5%
[47]
  growth at 10 µM: 58%
[48]
  growth at 10 µM: 49.3%
[49]
  growth at 10 µM: 69.5%

## CC(C)=CC(=O)O[C@@H]1CC(C)(C)C[C@H]2C3=CC[C@@H]4[C@@]5(C)CCC(=O)C(C)(C)[C@@H]5CC[C@@]4(C)[C@]3(C)CC[C@@]12C(=O)O
[1]
  inhibition of growth at 10 µM: 30.4%
[2]
  inhibition of growth at 10 µM: 28.5%
[3]
  inhibition of growth at 10 µM: 50.7%
[4]
  inhibition of growth at 10 µM: 25.6%
[5]
  inhibition of growth at 10 µM: 58%
[6]
  inhibition of growth at 10 µM: 57.4%
[7]
  inhibition of growth at 10 µM: 56.1%
[8]
  inhibition of growth at 10 µM: 55.9%
[9]
  inhibition of growth at 10 µM: 40%
[10]
  growth at 10 µM: 25.3%
[11]
  inhibition of growth at 10 µM: < 10%
[12]
  inhibition of growth at 10 µM: 38.7%
[13]
  inhibition of growth at 10 µM: 37.7%
[14]
  inhibition of growth at 10 µM: 42.2%
[15]
  inhibition of growth at 10 µM: 52.1%
[16]
  inhibition of growth at 10 µM: 21.8%
[17]
  inhibition of growth at 10 µM: 35%
[18]
  inhibition of growth at 10 µM: 37.3%
[19]
  inhibition of growth at 10 µM: 69.6%
[20]
  inhibition of growth at 10 µM: 73.4%
[21]
  inhibition of growth at 10 µM: 29%
[22]
  inhibition of growth at 10 µM: 52.9%
[23]
  inhibition of growth at 10 µM: 58.8%
[24]; read-out: GI
  inhibition of growth at 10 µM: 89.8%
[25]
  growth at 10 µM: 64.2%
[26]
  growth at 10 µM: 61.6%
[27]
  growth at 10 µM: 69.6%
[28]
  growth at 10 µM: 71.5%
[29]
  growth at 10 µM: 42%
[30]
  growth at 10 µM: 84.6%
[31]
  growth at 10 µM: 43.9%
[32]
  growth at 10 µM: 44.1%
[33]
  growth at 10 µM: 61.3%
[34]
  growth at 10 µM: 62.3%
[35]
  growth at 10 µM: 47.9%
[36]
  growth at 10 µM: 89.6%
[37]
  growth at 10 µM: 51.2%
[38]
  growth at 10 µM: 57.3%
[39]
  growth at 10 µM: 65%
[41]
  growth at 10 µM: 73%
[42]
  growth at 10 µM: 30.4%
[43]
  growth at 10 µM: 57.3%
[44]
  growth at 10 µM: 52.8%
[45]
  growth at 10 µM: 71%
[46]
  growth at 10 µM: 47.1%
[47]
  growth at 10 µM: 53.4%
[48]
  growth at 10 µM: 41.2%
[49]
  growth at 10 µM: 52.1%

Reference: ChEMBL document CHEMBL2413072, “Synthesis and in vitro anticancer studies of novel C-2 arylidene congeners of lantadenes” (2013)
